In US12077503B2, “Substituted cyclic amides and their use as herbicides” (FMC CORPORATION, priority 2015, dated 2024):

Tests used:
Format in all cases: in vivo
[1] = test system: giant foxtail (Setaria faberii); assay: Test A postemergence
Outline: (§1)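 Ratings of 0 (no effect) to 100 (complete control) come from visual comparison with untreated controls roughly 10 d after treatment. Test chemicals, formulated in a non-phytotoxic solvent mixture with surfactant, were applied either as a preemergence directed soil spray on seeded soil or postemergence to one- to two-leaf plants 2 to 10 cm tall.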

[2] = test system: ragweed (common ragweed, Ambrosia elatior); assay: Test A postemergence
Outline: as §1

Kochia (Kochia scoparia) [3] = assay: Test A postemergence
Outline: as §1

[4] = test system: barnyardgrass (Echinochloa crus-galli); assay: Test A postemergence
Outline: as §1

[5] = test system: pigweed (Amaranthus retroflexus); assay: Test A postemergence
Outline: as §1

[6] = test system: ryegrass, Italian (Italian ryegrass, Lolium multiflorum); assay: Test A postemergence
Outline: as §1

corn (Zea mays) = assay: Test A postemergence
Outline: as §1

[7] = test system: blackgrass (Alopecurus myosuroides); assay: Test A postemergence
Outline: as §1

[8] = test system: wheat (Triticum aestivum); assay: Test A postemergence
Outline: as §1

[9] = test system: Galium (catchweed bedstraw, Galium aparine); assay: Test A postemergence
Outline: as §1

[10] = test system: giant foxtail (Setaria faberii); assay: Test A preemergence; conditions: for Foxtail, Giant plant response rating (0 to 100 scale, 0 is no effect, 100 is complete control): visual injury approx. 10 d
Outline: as §1

[11] = test system: ragweed (common ragweed, Ambrosia elatior); assay: Test A preemergence; conditions: for Ragweed plant response rating (0 to 100 scale, 0 is no effect, 100 is complete control): visual injury approx. 10 d
Outline: as §1

Kochia (Kochia scoparia) [12] = assay: Test A preemergence; conditions: for Kochia plant response rating (0 to 100 scale, 0 is no effect, 100 is complete control): visual injury approx. 10 d
Outline: as §1

[13] = test system: barnyardgrass (Echinochloa crus-galli); assay: Test A preemergence; conditions: for Barnyardgrass plant response rating (0 to 100 scale, 0 is no effect, 100 is complete control): visual injury approx. 10 d
Outline: as §1

[14] = test system: pigweed (Amaranthus retroflexus); assay: Test A preemergence; conditions: for Pigweed plant response rating (0 to 100 scale, 0 is no effect, 100 is complete control): visual injury approx. 10 d
[15] = test system: ryegrass, Italian (Italian ryegrass, Lolium multiflorum); assay: Test A preemergence; conditions: for Ryegrass, Italian plant response rating (0 to 100 scale, 0 is no effect, 100 is complete control): visual injury approx. 10 d
Outline: as §1

[16] = test system: barnyardgrass (Echinochloa crus-galli); assay: Test B flooded paddy test; conditions: Flood, 250 g ai/ha; 0 to 100 scale where 0 is no effect and 100 is complete control; 13 to 15 d
Outline: (§2)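 Compound goes directly into floodwater once pots are flooded 3 cm above soil, targeting plants at two leaves; the water depth is then held for the test duration. Plants sit 13–15 d in a greenhouse and are rated visually, 100 denoting complete control.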

[17] = test system: sedge, umbrella (small-flower umbrella sedge, Cyperus difformis); assay: Test B flooded paddy test; conditions: Flood, 250 g ai/ha; 0 to 100 scale where 0 is no effect and 100 is complete control; 13 to 15 d
Outline: as §2

[18] = test system: ducksalad (Heteranthera limosa); assay: Test B flooded paddy test; conditions: Flood, 250 g ai/ha; 0 to 100 scale where 0 is no effect and 100 is complete control; 13 to 15 d
Outline: as §2

rice (Oryra sativa) = assay: Test B flooded paddy test; conditions: Flood, 250 g ai/ha; 0 to 100 scale where 0 is no effect and 100 is complete control; 13 to 15 d
Outline: as §2

[19] = 125 g ai/ha, postemergence, visual injury after approximately 10 d, 0 to 100 scale (0 no effect, 100 complete control)
[20] = 500 g ai/ha, postemergence, visual injury, 0 to 100 scale (0 no effect, 100 complete control), approx. 10 d
[21] = 125 g ai/ha, postemergence, visual rating after approx. 10 d, 0 to 100 scale (0 no effect, 100 complete control)
[22] = 125 g ai/ha, Preemergence, visual injury after approximately 10 d, 0 to 100 scale where 0 is no effect and 100 is complete control
[23] = 500 g ai/ha, preemergence, 0 to 100 scale, 0 = no effect, 100 = complete control
[24] = 125 g ai/ha, preemergence, visual rating after approx. 10 d, 0 to 100 scale where 0 is no effect and 100 is complete control
[25] = 125 g ai/ha, postemergence, visual injury rating on 0 to 100 scale (0 no effect, 100 complete control), approx. 10 d
[26] = Postemergence, 500 g ai/ha, 0 to 100 scale where 0 is no effect and 100 is complete control

## O=C(Nc1ccccc1F)C1C(=O)N(CC2CC2)CC1c1cccc(C(F)(F)F)c1 (stereo not drawn) [Compound 682]
[1]; [19]
  Plant response rating, Foxtail, Giant: 20
[1]; [20]
  Plant response rating, Foxtail, Giant: 80
[2]; [19]
  Plant response rating, Ragweed: 0
[2]; [20]
  Plant response rating, Ragweed: 0
Kochia (Kochia scoparia) [3]; [19]
  Plant response rating, Kochia: 0
Kochia (Kochia scoparia) [3]; [20]
  Plant response rating, Kochia: 0
[4]; [21]
  Plant response rating, Barnyardgrass: 0
[4]; [20]
  Plant response rating, Barnyardgrass: 20
[5]; [19]
  Plant response rating, Pigweed: 0
[5]; [20]
  Plant response rating, Pigweed: 0
[6]; [19]
  Plant response rating, Ryegrass, Italian: 0
[6]; [20]
  Plant response rating, Ryegrass, Italian: 0
Corn (Zea mays); [19]
  Plant response rating, Corn: 0
Corn (Zea mays); [20]
  Plant response rating, Corn: 0
[7]; [21]
  Plant response rating, Blackgrass: 0
[7]; [20]
  Plant response rating, Blackgrass: 0
[8]; [19]
  Plant response rating, Wheat: 0
[8]; [20]
  Plant response rating, Wheat: 20
[9]; [19]
  Plant response rating, Galium: 0
[9]; [20]
  Plant response rating, Galium: 0
[10]; [22]
  Plant response rating, Foxtail, Giant: 90
[10]; [23]
  Plant response rating, Foxtail, Giant: 90
[11]; [24]
  Plant response rating, Ragweed: 0
[11]; [23]
  Plant response rating, Ragweed: 0
Kochia (Kochia scoparia) [12]; [22]
  Plant response rating, Kochia: 0
Kochia (Kochia scoparia) [12]; [23]
  Plant response rating, Kochia: 0
[13]; [22]
  Plant response rating, Barnyardgrass: 0
[13]; [23]
  Plant response rating, Barnyardgrass: 0
[14]; [24]
  Plant response rating, Pigweed: 0
[14]; [23]
  Plant response rating, Pigweed: 0
[15]; [24]
  Plant response rating, Ryegrass, Italian: 20
[15]; [23]
  Plant response rating, Ryegrass, Italian: 30
[16]
  Plant response rating, Barnyardgrass: 0
[17]
  Plant response rating, Sedge, Umbrella: 0
[18]
  Plant response rating, Ducksalad: 0
Rice (Oryra sativa)
  Plant response rating, Rice: 0

## O=C(Nc1ccccc1F)C1C(=O)N(CC=CBr)CC1c1cccc(C(F)(F)F)c1 (stereo not drawn) [Compound 484]
[1]; [25]
  Foxtail, Giant plant response rating: 0
[1]; [26]
  Plant response rating, Foxtail, Giant: 40
[2]; [25]
  Ragweed plant response rating: 0
[2]; [26]
  Plant response rating, Ragweed: 0
Kochia (Kochia scoparia) [3]; [25]
  Kochia plant response rating: 0
Kochia (Kochia scoparia) [3]; [26]
  Plant response rating, Kochia: 0
[4]; [25]
  Barnyardgrass plant response rating: 0
[4]; [26]
  Plant response rating, Barnyardgrass: 50
[5]; [25]
  Pigweed plant response rating: 0
[5]; [26]
  Plant response rating, Pigweed: 0
[6]; [25]
  Ryegrass, Italian plant response rating: 0
[6]; [26]
  Plant response rating, Ryegrass, Italian: 0
Corn (Zea mays); [25]
  Corn plant response rating: 0
Corn (Zea mays); [26]
  Plant response rating, Corn: 0
[7]; [25]
  Blackgrass plant response rating: 0
[7]; [26]
  Plant response rating, Blackgrass: 0
[8]; [25]
  Wheat plant response rating: 0
[8]; [26]
  Plant response rating, Wheat: 0
[9]; [25]
  Galium plant response rating: 0
[9]; [26]
  Plant response rating, Galium: 0
[10]; [22]
  Plant response rating, Foxtail, Giant: 50
[10]; Preemergence, 500 g ai/ha
  Foxtail, Giant plant response rating (0 to 100 scale, 0 is no effect, 100 is complete control): 90
[11]; [22]
  Plant response rating, Ragweed: 0
[11]; Preemergence, 500 g ai/ha
  Ragweed plant response rating (0 to 100 scale, 0 is no effect, 100 is complete control): 0
Kochia (Kochia scoparia) [12]; [22]
  Plant response rating, Kochia: 0
Kochia (Kochia scoparia) [12]; Preemergence, 500 g ai/ha
  Kochia plant response rating (0 to 100 scale, 0 is no effect, 100 is complete control): 0
[13]; [22]
  Plant response rating, Barnyardgrass: 0
[13]; Preemergence, 500 g ai/ha
  Barnyardgrass plant response rating (0 to 100 scale, 0 is no effect, 100 is complete control): 40
[14]; [22]
  Plant response rating, Pigweed: 0
[14]; Preemergence, 500 g ai/ha
  Pigweed plant response rating (0 to 100 scale, 0 is no effect, 100 is complete control): 0
[15]; [22]
  Plant response rating, Ryegrass, Italian: 0
[15]; Preemergence, 500 g ai/ha
  Ryegrass, Italian plant response rating (0 to 100 scale, 0 is no effect, 100 is complete control): 0
[16]
  Plant response rating, Barnyardgrass: 0
[17]
  Plant response rating, Sedge, Umbrella: 0
[18]
  Plant response rating, Ducksalad: 0
Rice (Oryra sativa)
  Plant response rating, Rice: 0

## O=C1NCC(c2cc(C(F)(F)F)cc(C(F)(F)F)c2)C1C(=O)Nc1ccc(F)cc1F (stereo not drawn) [Compound 589]
[1]; [21]
  Plant response rating, Foxtail, Giant: 80
[1]; [26]
  Plant response rating, Foxtail, Giant: 80
[2]; [21]
  Plant response rating, Ragweed: 0
[2]; [26]
  Plant response rating, Ragweed: 0
Kochia (Kochia scoparia) [3]; [21]
  Plant response rating, Kochia: 0
Kochia (Kochia scoparia) [3]; [26]
  Plant response rating, Kochia: 0
[4]; [21]
  Plant response rating, Barnyardgrass: 60
[4]; [26]
  Plant response rating, Barnyardgrass: 80
[5]; [21]
  Plant response rating, Pigweed: 0
[5]; [26]
  Plant response rating, Pigweed: 0
[6]; [21]
  Plant response rating, Ryegrass, Italian: 20
[6]; [26]
  Plant response rating, Ryegrass, Italian: 40
Corn (Zea mays); [21]
  Plant response rating, Corn: 10
Corn (Zea mays); [26]
  Plant response rating, Corn: 60
[7]; [21]
  Plant response rating, Blackgrass: 20
[7]; [26]
  Plant response rating, Blackgrass: 40
[8]; [21]
  Plant response rating, Wheat: 0
[8]; [26]
  Plant response rating, Wheat: 50
[9]; [21]
  Plant response rating, Galium: 0
[9]; [26]
  Plant response rating, Galium: 0
[10]; [22]
  Plant response rating, Foxtail, Giant: 80
[10]; Preemergence, 500 g ai/ha
  Foxtail, Giant plant response rating (0 to 100 scale, 0 is no effect, 100 is complete control): 90
[11]; [22]
  Plant response rating, Ragweed: 0
[11]; Preemergence, 500 g ai/ha
  Ragweed plant response rating (0 to 100 scale, 0 is no effect, 100 is complete control): 0
Kochia (Kochia scoparia) [12]; [22]
  Plant response rating, Kochia: 0
Kochia (Kochia scoparia) [12]; Preemergence, 500 g ai/ha
  Kochia plant response rating (0 to 100 scale, 0 is no effect, 100 is complete control): 0
[13]; [22]
  Plant response rating, Barnyardgrass: 80
[13]; Preemergence, 500 g ai/ha
  Barnyardgrass plant response rating (0 to 100 scale, 0 is no effect, 100 is complete control): 90
[14]; [22]
  Plant response rating, Pigweed: 0
[14]; Preemergence, 500 g ai/ha
  Pigweed plant response rating (0 to 100 scale, 0 is no effect, 100 is complete control): 0
[15]; [22]
  Plant response rating, Ryegrass, Italian: 0
[15]; Preemergence, 500 g ai/ha
  Ryegrass, Italian plant response rating (0 to 100 scale, 0 is no effect, 100 is complete control): 40
[16]
  Plant response rating, Barnyardgrass: 60
[17]
  Plant response rating, Sedge, Umbrella: 0
[18]
  Plant response rating, Ducksalad: 70
Rice (Oryra sativa)
  Plant response rating, Rice: 20
